Assay results from patent US20240335456A1, “CO-CRYSTAL COMPOSITION AND ITS PHARMACEUTICAL USE” (SYN-NAT PRODUCTS ENTERPRISE LLC, priority 2015, published 2024).
Several values for one entry are separate records, joined by “and”; a condition that tells them apart may be missing. Equal values may be shown once.

How the values were obtained:
[1] = tested on: Human fibroblast-like synoviocytes rheumatoid arthritis (HFLS-RA) cells; experiment: HFLS-RA cell proliferation (cell numbers 48 hours after treatment); type: cell-based
Experimental: Human fibroblast-like synoviocytes rheumatoid arthritis (HFLS-RA) cells were cultured in vitro and proliferation of the cells was measured by quantifying cells numbers 48 hours after treatment. The cells were treated with DCP at concentrations of 1.563 μg/ml; 3.125 μg/ml; 6.25 μg/ml; 12.5 μg/ml; 25 μg/ml; 50 μg/ml; or 100 μg/ml.

[2] = tested on: Human MH7A synovial cells; experiment: MH7A synovial cell proliferation (cell numbers 48 hours after treatment); type: cell-based
Experimental: Human MH7A synovial cells were cultured in vitro and proliferation of the cells was measured by quantifying cells numbers 48 hours after treatment. The cells were treated with DCP at concentrations of 1.563 μg/ml; 3.125 μg/ml; 6.25 μg/ml; 12.5 μg/ml; 25 μg/ml; 50 μg/ml; or 100 μg/ml.

[3] = tested on: nonbacterial prostatitis; experiment: Mouse model for prostatitis, prostate tissue pathology; type: in vivo
Description: Mouse model for prostatitis was utilized to study the effects of DCP.

[4] = tested on: benign prostatic hyperplasia (BPH); experiment: Mouse model of BPH (white cell number, lecithin density, prostate tissue); type: in vivo
Description: In the BPH model group (FIG. 7), glands proliferation and a small amount of lymphocytes and plasma cells were shown.

[5] = tested on: benign prostatic hyperplasia (BPH); experiment: Study of DCP in male cancer patients also suffering from BPH; type: in vivo, human
[6] = tested on: rheumatoid arthritis, osteoarthritis, arthrolithiasis (gout); experiment: Phase II and Phase III clinical trials in SCLC patients also suffering from rheumatoid arthritis, osteoarthritis, gout and other diseases; type: in vivo, human; settings: DCP 1 to about 10 mg/kg body weight
Experimental: DCP alleviated symptoms for clinical trial patients suffering from multiple diseases. In China, DCP (1 to about 10 mg/kg body weight) in combination with cisplatin and Paclitaxel were used in Phase II and Phase III clinical trials for treatment of patients having small cell lung cancer (SCLC). The cancer patients were simultaneously suffering from a number of proliferative diseases, degenerative diseases, immunological diseases, and other diseases as indicated above. For example, some of the patients were suffering from rheumatoid arthritis, osteoarthritis, arthrolithiasis (gout) and/or other diseases. […] Such diseases include at least rheumatoid arthritis, osteoarthritis, and arthrolithiasis (gout). […] When DCP was administered with an additional therapeutic agent or adjuvant therapy agent such as folic acid, coenzyme Q10, curcumin, glutathione (GSH), aloe vera, oryzanol, 5-fluorouracil, bortezomib, the effects to reduce disease symptoms were further enhanced.

[7] = Phase I dose-escalation, Chinese cancer patients; cited from earlier work
[8] = 48 hours after treatment, 1.563-100 μg/ml
[9] = majority of BPH patients, after two weeks of use

Dicycloplatin [DCP]
IC50, inhibition of HFLS-RA cell proliferation [1, 8]: 3.914 µg/mL and 3.125 µg/mL
HFLS-RA cell proliferation inhibited ([1]; FIG. 1): 99%
IC50, inhibition of MH7A cell proliferation [2, 8]: 8.926 µg/mL and 8.92 µg/mL
MH7A cell proliferation inhibited ([2]; FIG. 2): 99%
Effective amount for human, based on the effective amount in mice ([3]; extrapolated from mouse prostatitis model): 1 to 10 mg/Kg body weight
Outcome of mice with nonbacterial prostatitis ([3]; treatment for 1-2 weeks): returned to normal
Granulomatous lesions in prostate tissue ([3]; treatment for one week, FIG. 5): significantly reduced in some tissues or eliminated in others
Inflammatory cells in interstitial infiltration ([3]; treatment for one week, FIG. 5): significantly reduced
Lecithin corpuscle (density) ([4]; DCP injection): 30 ± 0.53
White cell (number/μL) ([4]; DCP injection): 3250 ± 65 number/μL
Lecithin corpuscle (density) ([4]; DCP oral): 27 ± 0.50
White cell (number/μL) ([4]; DCP oral): 3500 ± 71 number/μL
Enlargement of prostate ([4]; after treatment for a therapeutic period): significant inhibited
Prostate tissue findings (inflammatory cells, glandular proliferation) ([4]; intravenous administration, FIG. 9): inflammatory cells were significantly reduced, and glandular proliferation was inhibited
Prostate tissue findings (inflammatory cells, glandular proliferation) ([4]; oral administration, FIG. 10): inflammatory cells were significantly reduced and glandular proliferation was inhibited
Enlargement of prostate [5, 9]: obviously inhibited
Maximum of urinary volume [5, 9]: more than 12 mL/s
PSA [5, 9]: decreased
Symptoms of BPH ([5]; male patients with cancers and BPH): significantly alleviated
Side effects [6]: less patients receiving DCP alone were suffering from side effects and the side effects were of less severity
Symptoms of proliferative, degenerative, immunological and other diseases [6]: significantly alleviated the symptoms
Tolerated doses [7]: 100 to 550 mg/m^2

CC(C)(C)NC(=O)[C@H]1CC[C@H]2[C@@H]3CC[C@H]4NC(=O)C=C[C@]4(C)[C@H]3CC[C@]12C [PROSCAR, Finasteride, reference compound]
Prostate tissue findings (inflammation cells, glandular proliferation) ([4]; PROSCAR drug group, FIG. 8): glandular proliferation was not clear, but inflammation cells were reduced
